In patent US20070276011A1, “Plasminogen Activator Inhibitor-1 Inhibitor” (priority 2003, published 2007):

What was measured:
recombinant human PAI-1 [1] = target: T1, recombinant human PAI-1 (Homo sapiens, UniProt P05121); experiment: PAI-1 inhibitory activity, Test Method B (tPA fluorogenic substrate, Tris buffer pH7.5, room temperature); type: biochemical; details: 25 μM test compound; Test Method B (cells marked "method B")
Experimental: To a 90 μL solution obtained by diluting a DMSO solution of the test compound at 2.2-fold concentration of the test concentration (=final concentration when fluorogenic substrate was added) with a Tris buffer (pH7.5), 10 μL of 120 nM recombinant human PAI-1 solution adjusted with pH6.6 phosphate buffer was added, and incubated for 15 minutes at room temperature. 50 μL of 800IU/ml two-chain tPA (activity standard) solution adjusted with Tris buffer (pH7.5) was added, and incubated for 30 minutes at room temperature. […] Fluorescence was measured at the excitation wavelength=360 nm, emission wavelength=460 or 465 nm using a microplete reader (SPECTRAFLUOR or GENios) by TECAN. The fluorescence intensities in the presence of the PAI-1 as the control (DMSO) or in the absence of the PAI-1 (tPA alone) were taken as 100% and 0% of PAI-1 activities, respectively, and inhibitory ratios of PAI-1 activities in the presence of the test compound were obtained. […]
In either method of Test Method A or B, fluorescence of tPA activation by the test compound in the absence of PAI-1 or that of the test compound was not observed.
In the following table, “method B” described in the column of the inhibitory ratio means that the results were measured by the above Test Method B. The other results indicated were measured by the above Test Method A.

recombinant human PAI-1 [2] = target: T1, recombinant human PAI-1; experiment: Inhibition of complex formation of PAI-1 and tPA (SDS-PAGE); type: biochemical; details: 100 μM concentration
Experimental: To a 2.5 μL solution obtained by diluting a DMSO solution of the test compound at 4-fold concentration of the test concentration with PBS(-), 5 μL of 150 nM recombinant human PAI-1 solution adjusted with a phosphate buffer (pH6.6, 0.05M Sodium Phosphate, 0.1 M NaCl, 1 mM EDTA) was added, and reacted for 5 minutes at 37° C. […] of 600 nM recombinant human one-chain tPA solution adjusted with PBS(-) was added, and further reacted for 5 minutes at 37° C. 10 μL of stop buffer (1.25 mM Tris-HCl pH6.8, 4% SDS, 0.01% BPB, 14% Glycerol) was added, heated for 30 seconds at 100° C., and then the total amount of 20 μL was applied to 10% SDS-PAGE gel electrophoresis. When the test compound was not added as being a control, a band of PAI-1-tPA complex was observed.

recombinant human PAI-1 [3] = target: T1, recombinant human PAI-1; experiment: PAI-1 inhibitory activity, Test Method A (tPA fluorogenic substrate, Tris buffer pH8.0, 37 C); type: biochemical; details: for Inhibitory Ratio at 25 μM (%): Test Method A; for IC50: 50% inhibitory concentration of PAI-1 activity, according to the aforementioned method

T1 sequence (P05121 24-402): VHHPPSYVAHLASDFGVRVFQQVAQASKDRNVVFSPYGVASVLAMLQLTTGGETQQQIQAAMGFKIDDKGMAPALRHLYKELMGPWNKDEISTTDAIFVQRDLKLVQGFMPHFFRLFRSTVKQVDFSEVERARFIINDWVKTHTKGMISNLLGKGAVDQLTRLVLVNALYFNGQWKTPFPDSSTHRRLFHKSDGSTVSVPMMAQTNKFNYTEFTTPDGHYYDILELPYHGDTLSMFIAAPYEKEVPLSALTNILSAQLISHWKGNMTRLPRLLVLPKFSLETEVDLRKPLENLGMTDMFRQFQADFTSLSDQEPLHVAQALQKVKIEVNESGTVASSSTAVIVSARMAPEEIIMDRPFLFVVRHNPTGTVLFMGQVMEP

O=C(O)c1cccc(C=C2SC(=O)N(Cc3ccc(Cl)c(Cl)c3)C2=O)c1 [compound 350, 5-(3-Carboxybenzylidene)-3-(3,4-dichlorobenzyl)thiazolidine-2,4-dione]
Inhibitory Ratio at 25 μM (%) (recombinant human PAI-1 [1]): 75 (method B) %

Cc1cc(C=C2SC(=O)N(Cc3ccc(Cl)c(Cl)c3)C2=O)cc(C(=O)Nc2ccc(O)c(O)c2)c1O [compound 401, 5-[3-Methyl-4-hydroxy-5-(3,4-dihydroxyphenylcarbamoyl)-benzylidene]-3-(3,4-dichlorobenzyl)thiazolidine-2,4-dione]
inhibition of the complex formation of PAI-1 and tPA observed with SDS-PAGE (recombinant human PAI-1 [2]): completely inhibited | Inhibitory Ratio at 25 μM (%) (recombinant human PAI-1 [3]; 25 μM test compound): 96%

CCOC1=NN(c2ccc([N+](=O)[O-])cc2)C(=O)C1=Cc1cc(O)c(O)cc1O [compound 156]
inhibition of the complex formation of PAI-1 and tPA observed with SDS-PAGE (recombinant human PAI-1 [2]): completely inhibited | IC50 (recombinant human PAI-1 [3]): 300 nM | Inhibitory Ratio at 25 μM (%) (recombinant human PAI-1 [3]; test compound 25 μM): 70%

O=C1SC(=Cc2cc(O)c(O)c([N+](=O)[O-])c2)C(=O)N1Cc1ccc(Cl)c(Cl)c1 [compound 347]
inhibition of the complex formation of PAI-1 and tPA observed with SDS-PAGE (recombinant human PAI-1 [2]): completely inhibited | Inhibitory Ratio at 25 μM (%) (recombinant human PAI-1 [3]; 25 μM test compound): >99% | IC50 (recombinant human PAI-1 [3]): 450 nM

CC(C)C1=NN(c2ccc(Cl)c(Cl)c2)C(=O)C1=Cc1cc(O)c(O)cc1O [compound 141, 4-(2,4,5-trihydroxybenzylidene)-1-(3,4-dichlorophenyl)-3-isopropyl-2-pyrazolin-5-one]
inhibition of the complex formation of PAI-1 and tPA observed with SDS-PAGE (recombinant human PAI-1 [2]): completely inhibited | IC50 (recombinant human PAI-1 [3]): 240 nM | Inhibitory Ratio at 25 μM (%) (recombinant human PAI-1 [3]; test compound 25 μM): >99%

O=C(Nc1cc(O)c(O)c(O)c1)c1cc(C=C2SC(=O)N(Cc3ccc(Cl)c(Cl)c3)C2=O)ccc1O [compound 435]
inhibition of the complex formation of PAI-1 and tPA observed with SDS-PAGE (recombinant human PAI-1 [2]): completely inhibited | Inhibitory Ratio at 25 μM (%) (recombinant human PAI-1 [3]; 25 μM test compound): 71%

O=C1SC(=Cc2ccc(O)c(O)c2)C(=O)N1Cc1ccc(Cl)cc1Cl [compound 23, 5-(3,4-dihydroxybenzylidene)-3-(2,4-dichlorobenzyl)thiazolidine-2,4-dione]
inhibition of the complex formation of PAI-1 and tPA observed with SDS-PAGE (recombinant human PAI-1 [2]): completely inhibited | IC50 (recombinant human PAI-1 [3]): 250 nM | Inhibitory Ratio at 25 μM (%) (recombinant human PAI-1 [3]; test compound 25 μM): >99% | melting point: 202 °C (dec.)

COc1cc(C=C2SC(=O)N(Cc3ccc(Cl)c(Cl)c3)C2=O)cc(C(=O)Nc2ccc(O)c(O)c2)c1O [compound 349, 5-[3-Methoxy-4-hydroxy-5-(3,4-dihydroxyphenylcarbamoyl)-benzylidene]-3-(3,4-dichlorobenzyl)thiazolidine-2,4-dione]
inhibition of the complex formation of PAI-1 and tPA observed with SDS-PAGE (recombinant human PAI-1 [2]): completely inhibited | Inhibitory Ratio at 25 μM (%) (recombinant human PAI-1 [3]; 25 μM test compound): 87% | IC50 (recombinant human PAI-1 [3]): 570 nM

O=C1C(=Cc2cc(O)c(O)cc2O)C(c2ccccc2)=NN1c1cc(Cl)cc(Cl)c1 [compound 136]
inhibition of the complex formation of PAI-1 and tPA observed with SDS-PAGE (recombinant human PAI-1 [2]): completely inhibited | IC50 (recombinant human PAI-1 [3]): 390 nM | Inhibitory Ratio at 25 μM (%) (recombinant human PAI-1 [3]; test compound 25 μM): >99%

O=C(Nc1ccc(O)c(O)c1)c1cc(C=C2SC(=O)N(Cc3ccc(C(F)(F)F)cc3)C2=O)ccc1O [compound 402]
inhibition of the complex formation of PAI-1 and tPA observed with SDS-PAGE (recombinant human PAI-1 [2]): completely inhibited | Inhibitory Ratio at 25 μM (%) (recombinant human PAI-1 [3]; 25 μM test compound): 92%

CC(C)C1=NN(c2ccc(F)c(Cl)c2)C(=O)C1=Cc1cc(O)c(O)cc1O [compound 515, 4-(2,4,5-Trihydroxybenzylidne)-1-(3-chloro-4-fluorophenyl)-3-isopropyl-2-pyrazolin-5-one]
inhibition of the complex formation of PAI-1 and tPA observed with SDS-PAGE (recombinant human PAI-1 [2]): completely inhibited | Inhibitory Ratio at 25 μM (%) (recombinant human PAI-1 [3]; 25 μM test compound): >99% | IC50 (recombinant human PAI-1 [3]): 500 nM

O=C(Cc1cccc(Oc2ccccc2)c1)Nc1cccc(CN2C(=O)SC(=Cc3cccc(O)c3O)C2=O)c1 [compound 320, 5-(2,3-Dihydroxybenzylidene)-3-{3-[(3-phenoxyphenyl)acetylamino]-benzyl}thiazolidine-2,4-dione]
inhibition of the complex formation of PAI-1 and tPA observed with SDS-PAGE (recombinant human PAI-1 [2]): completely inhibited | Inhibitory Ratio at 25 μM (%) (recombinant human PAI-1 [3]; 25 μM test compound): >99% | IC50 (recombinant human PAI-1 [3]): 340 nM

O=C(Nc1ccc(O)c(O)c1)c1cc(C=C2SC(=O)N(Cc3cc(C(F)(F)F)cc(C(F)(F)F)c3)C2=O)ccc1O [compound 384]
inhibition of the complex formation of PAI-1 and tPA observed with SDS-PAGE (recombinant human PAI-1 [2]): completely inhibited | Inhibitory Ratio at 25 μM (%) (recombinant human PAI-1 [3]; 25 μM test compound): 91%

O=C(Nc1cc([N+](=O)[O-])ccc1Cl)c1cc(C=C2SC(=O)N(Cc3ccc(Cl)c(Cl)c3)C2=O)ccc1O [compound 473]
inhibition of the complex formation of PAI-1 and tPA observed with SDS-PAGE (recombinant human PAI-1 [2]): completely inhibited | Inhibitory Ratio at 25 μM (%) (recombinant human PAI-1 [3]; 25 μM test compound): 70% | IC50 (recombinant human PAI-1 [3]): 390 nM

O=C1C(=Cc2ccc(O)c(O)c2)SC(=S)N1Cc1ccc(Cl)c(Cl)c1 [compound 81, 5-(3,4-Dihydroxybenzylidene)-3-(3,4-dichlorobenzyl)rhodanine]
inhibition of the complex formation of PAI-1 and tPA observed with SDS-PAGE (recombinant human PAI-1 [2]): completely inhibited | IC50 (recombinant human PAI-1 [3]): 230 nM | Inhibitory Ratio at 25 μM (%) (recombinant human PAI-1 [3]; test compound 25 μM): >99%

O=C(Nc1cccc(OC(F)(F)F)c1)c1cc(C=C2SC(=O)N(Cc3ccc(Cl)c(Cl)c3)C2=O)cc(O)c1O [compound 475]
inhibition of the complex formation of PAI-1 and tPA observed with SDS-PAGE (recombinant human PAI-1 [2]): completely inhibited | Inhibitory Ratio at 25 μM (%) (recombinant human PAI-1 [3]; 25 μM test compound): 53% | IC50 (recombinant human PAI-1 [3]): 520 nM

O=C(Nc1cc(Cl)ccc1Cl)c1cc(C=C2SC(=O)N(Cc3ccc(Cl)c(Cl)c3)C2=O)ccc1O [compound 441]
inhibition of the complex formation of PAI-1 and tPA observed with SDS-PAGE (recombinant human PAI-1 [2]): completely inhibited | Inhibitory Ratio at 25 μM (%) (recombinant human PAI-1 [3]; 25 μM test compound): 71% | IC50 (recombinant human PAI-1 [3]): 480 nM

COC(=O)c1ccc(CN2C(=O)SC(=Cc3ccc(O)c(C(=O)O)c3)C2=O)cc1 [compound 409, 5-(3-Carboxy-4-hydroxybenzylidene)-3-(4-methoxycarbonylbenzyl)-thiazolidine-2,4-dione]
Inhibitory Ratio at 25 μM (%) (recombinant human PAI-1 [1]): 23 (method B) %

N=C(N)NCCC[C@H](N)C(=O)O.N=C(N)NCCC[C@H](N)C(=O)O.N=C(N)NCCC[C@H](N)C(=O)O.O=C1SC(=Cc2cc(O)c(O)c(O)c2)C(=O)N1Cc1ccc(Cl)c(Cl)c1 [compound 334, tri(L-(+)-arginine) salt of 5-(3,4,5-trihydroxybenzylidene)-3-(3,4-dichlorobenzyl)thiazolidine-2,4-dione]
inhibition of the complex formation of PAI-1 and tPA observed with SDS-PAGE (recombinant human PAI-1 [2]): completely inhibited | Inhibitory Ratio at 25 μM (%) (recombinant human PAI-1 [3]; 25 μM test compound): >99% | IC50 (recombinant human PAI-1 [3]): 540 nM

O=C(Cc1cccc(Oc2ccccc2)c1)Nc1ccc(CN2C(=O)SC(=Cc3cccc(O)c3O)C2=O)cc1 [compound 312, 5-(2,3-Dihydroxybenzylidene)-3-{4-[(3-phenoxyphenyl)acetylamino]-benzyl}thiazolidine-2,4-dione]
inhibition of the complex formation of PAI-1 and tPA observed with SDS-PAGE (recombinant human PAI-1 [2]): completely inhibited | Inhibitory Ratio at 25 μM (%) (recombinant human PAI-1 [3]; 25 μM test compound): >99% | IC50 (recombinant human PAI-1 [3]): 290 nM

O=C1SC(=Cc2cccc(O)c2O)C(=O)N1Cc1cccc(Cl)c1Cl [compound 18, 5-(2,3-Dihydroxybenzylidene)-3-(2,3-dichlorobenzyl)thiazolidine-2,4-dione]
inhibition of the complex formation of PAI-1 and tPA observed with SDS-PAGE (recombinant human PAI-1 [2]): completely inhibited | IC50 (recombinant human PAI-1 [3]): 380 nM | Inhibitory Ratio at 25 μM (%) (recombinant human PAI-1 [3]; test compound 25 μM): >99%

CCOC1=NN(c2ccc([N+](=O)[O-])cc2)C(=O)C1=Cc1cc(/C=C/c2ccccc2)ccc1O [compound 517]
inhibition of the complex formation of PAI-1 and tPA observed with SDS-PAGE (recombinant human PAI-1 [2]): completely inhibited | Inhibitory Ratio at 25 μM (%) (recombinant human PAI-1 [3]; 25 μM test compound): >99% | IC50 (recombinant human PAI-1 [3]): 480 nM

O=C1SC(=Cc2cccc(O)c2O)C(=O)N1Cc1ccc(Cl)cc1Cl [compound 22, 5-(2,3-Dihydroxybenzylidene)-3-(2,4-dichlorobenzyl)thiazolidine-2,4-dione]
inhibition of the complex formation of PAI-1 and tPA observed with SDS-PAGE (recombinant human PAI-1 [2]): completely inhibited | IC50 (recombinant human PAI-1 [3]): 440 nM | Inhibitory Ratio at 25 μM (%) (recombinant human PAI-1 [3]; test compound 25 μM): >99%

O=C(Nc1ccc(CN2C(=O)SC(=Cc3cccc(O)c3O)C2=O)cc1)c1ccc(Oc2ccccc2)cc1 [compound 316, 5-(2,3-Dihydroxybenzylidene)-3-[4-(4-phenoxybenzoylamino)benzyl]-thiazolidine-2,4-dione]
inhibition of the complex formation of PAI-1 and tPA observed with SDS-PAGE (recombinant human PAI-1 [2]): completely inhibited | Inhibitory Ratio at 25 μM (%) (recombinant human PAI-1 [3]; 25 μM test compound): >99% | IC50 (recombinant human PAI-1 [3]): 460 nM

O=C(Cc1cc(C(F)(F)F)cc(C(F)(F)F)c1)Nc1ccc(CN2C(=O)SC(=Cc3cccc(O)c3O)C2=O)cc1 [compound 317, 5-(2,3-Dihydroxybenzylidene)-3-{4-[3,5-Bis(trifluoromethyl)-phenylacetylamino]benzyl}thiazolidine-2,4-dione]
inhibition of the complex formation of PAI-1 and tPA observed with SDS-PAGE (recombinant human PAI-1 [2]): completely inhibited | Inhibitory Ratio at 25 μM (%) (recombinant human PAI-1 [3]; 25 μM test compound): >99% | IC50 (recombinant human PAI-1 [3]): 420 nM
